Earlier results as cited in patent EP4692316A1, “MICROCARRIER FOR CELL CULTURE, METHOD FOR PREPARING MICROCARRIER FOR CELL CULTURE, AND CELL CULTURE COMPOSITION USING SAME” (LG Chem, Ltd., priority 2024, dated 2025).

Settings: monomer or oil as supplied

| SMILES | density [g/mL] |
| --- | --- |
| C=Cc1c(C)cc(C)cc1C [trimethylstyrene] | 0.906 |
| C=Cc1ccc(C(C)(C)C)cc1 [4-tert-butyl styrene] | 0.875 |
| C=Cc1ccc(C)cc1C [2,4-Dimethylstyrene] | 0.906 |
| C=Cc1ccc(C)cc1 [methylstyrene] | 0.89 to 0.92 |
